From patent US20080274976A1 (priority 2002, published 2008) come the findings set out here.

Where a SMILES comes first, the peptide text is derived from it. Bridges are numbered along the chain shown (N, C = ends). [ ]: non-standard residue; d: D form. Hyp = O=C(O)[C@@H]1C[C@@H](O)CN1

The test system of one assay is TSha1 K^+ channel. The assay is classed as cell-based, trout.
The target of a further assay is Shaker-Δ6-46 (Drosophila melanogaster, UniProt P08510, DEL6-46). The assay is classed as cell-based.
Shaker-Δ6-46, sequence (P08510 1-655 with tags or gaps DEL6-46): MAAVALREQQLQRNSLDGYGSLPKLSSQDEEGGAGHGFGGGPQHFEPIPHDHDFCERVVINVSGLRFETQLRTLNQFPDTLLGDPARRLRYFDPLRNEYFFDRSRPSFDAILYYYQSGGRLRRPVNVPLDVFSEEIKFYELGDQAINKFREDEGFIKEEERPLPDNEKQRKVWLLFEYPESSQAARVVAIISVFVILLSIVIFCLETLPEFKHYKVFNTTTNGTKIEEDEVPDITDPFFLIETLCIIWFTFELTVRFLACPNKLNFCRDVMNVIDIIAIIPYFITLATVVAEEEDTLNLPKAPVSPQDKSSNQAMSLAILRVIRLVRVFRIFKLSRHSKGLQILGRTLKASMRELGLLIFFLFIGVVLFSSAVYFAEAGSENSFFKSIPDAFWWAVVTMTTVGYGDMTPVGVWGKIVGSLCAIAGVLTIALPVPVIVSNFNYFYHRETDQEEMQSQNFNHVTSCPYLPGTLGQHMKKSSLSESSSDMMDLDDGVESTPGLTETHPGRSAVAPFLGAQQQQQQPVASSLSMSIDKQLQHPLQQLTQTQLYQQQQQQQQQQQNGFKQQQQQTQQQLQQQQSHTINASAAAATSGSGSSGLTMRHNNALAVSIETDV

Regarding `CC(C)C[C@@H]1NC(=O)[C@H](CO)NC(=O)[C@@H]2CSSC[C@@H]3NC(=O)[C@@H]4C[C@@H](O)CN4C(=O)[C@H](CC(N)=O)NC(=O)[C@H](CCCNC(=N)N)NC(=O)[C@H](CCCCN)NC(=O)[C@H](CSSC[C@H](NC(=O)[C@H](CO)NC(=O)[C@@H]4C[C@@H](O)CN4C(=O)[C@@H](N)CC(C)C)C(=O)N2)NC(=O)[C@H](C)NC(=O)[C@@H]2C[C@@H](O)CN2C(=O)[C@H](C(C)C)NC(=O)[C@@H]2C[C@@H](O)CN2C(=O)[C@H](CSSC[C@@H](C(=O)N[C@H](C(N)=O)[C@@H](C)O)NC3=O)NC(=O)[C@H](CC(C)C)NC(=O)[C@H](CCCNC(=N)N)NC(=O)[C@H](CC(C)C)NC(=O)[C@H](CC(N)=O)NC1=O` [κM-conotoxin RIIIK, LOSCCSLNLRLCOVOACKRNOCCT-NH2] (H-L[Hyp]SCCSLNLRLC[Hyp]V[Hyp]ACKRN[Hyp]CCT-NH2; disulfide 4-17, 5-22, 12-23), in the assay with TSha1 K^+ channel, the “k^(C)on, times higher than in the Shaker-Δ6-46 channel” value is “about four”; the “k^(O)off for Tsha1, times smaller than in the Shaker-Δ6-46 channel” value is reported as “about 20 times”; the “k^(O)on in Tsha1, times higher than in the Shaker-Δ6-46 channel” value is on record as “three”. At Shaker-Δ6-46, the “affinity for the open state (0 mV), times lower compared to the closed state” value was “about three to four”; the “k^(C)off” value was 6.0 ± 3.0 s⁻¹; the “k^(C)on” value amounted to 4e+06 ± 700000 M⁻¹ s⁻¹; the “k^(O)off” value is 90 ± 30 s⁻¹. The “k^(O)on” value at Shaker-Δ6-46 worked out at 3e+07 ± 7e+06 M⁻¹ s⁻¹.
